The text below walks through data of US20250092030A1, “ENHANCERS OF PARTICULATE GUANYLYL CYCLASE RECEPTOR A” (Mayo Foundation for Medical Education and Research, priority 2023, published 2025).

Molecules are shown by their SMILES. Values joined by “and” are separate entries in the source; they are usually repeats but may differ in a detail not shown here. Identical values can stand only once. Bounds are passed on as bounds.

The experiment deals with T1, particulate guanylyl cyclase receptor A (pGC-A) (Homo sapiens, UniProt P16066).
T1 construct: expressed in transfected cells; host or cells: HEK293
T1 sequence (P16066 33-1061): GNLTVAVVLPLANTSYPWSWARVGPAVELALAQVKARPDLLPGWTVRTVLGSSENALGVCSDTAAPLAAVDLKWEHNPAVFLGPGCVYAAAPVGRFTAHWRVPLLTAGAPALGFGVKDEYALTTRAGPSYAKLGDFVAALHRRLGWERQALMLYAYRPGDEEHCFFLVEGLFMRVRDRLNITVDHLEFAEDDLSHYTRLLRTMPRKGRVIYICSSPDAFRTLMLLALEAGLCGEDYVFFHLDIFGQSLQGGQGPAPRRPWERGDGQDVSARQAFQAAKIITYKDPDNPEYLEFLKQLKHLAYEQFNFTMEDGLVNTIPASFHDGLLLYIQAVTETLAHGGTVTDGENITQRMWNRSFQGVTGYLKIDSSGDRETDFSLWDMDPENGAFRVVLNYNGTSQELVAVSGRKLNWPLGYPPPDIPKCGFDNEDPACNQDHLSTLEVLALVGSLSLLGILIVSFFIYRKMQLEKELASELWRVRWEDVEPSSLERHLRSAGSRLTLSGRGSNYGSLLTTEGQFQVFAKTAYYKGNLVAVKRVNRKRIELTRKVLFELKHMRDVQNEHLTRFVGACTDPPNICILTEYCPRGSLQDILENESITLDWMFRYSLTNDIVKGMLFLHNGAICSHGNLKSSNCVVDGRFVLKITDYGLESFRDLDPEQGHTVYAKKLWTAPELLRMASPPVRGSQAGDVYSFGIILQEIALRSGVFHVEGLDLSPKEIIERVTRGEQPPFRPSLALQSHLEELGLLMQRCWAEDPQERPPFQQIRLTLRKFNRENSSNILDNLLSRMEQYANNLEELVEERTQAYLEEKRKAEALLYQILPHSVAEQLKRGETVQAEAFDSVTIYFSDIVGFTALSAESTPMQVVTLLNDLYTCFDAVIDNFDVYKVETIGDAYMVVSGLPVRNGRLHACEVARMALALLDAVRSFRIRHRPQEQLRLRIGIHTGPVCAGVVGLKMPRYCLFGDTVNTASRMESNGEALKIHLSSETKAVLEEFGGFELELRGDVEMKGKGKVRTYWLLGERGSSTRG
T1 sequence (P01160 124-151 partner limits assumed): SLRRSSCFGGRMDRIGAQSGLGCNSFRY
Briefly: cGMP production by HTRF in HEK293 cells overexpressing pGC-A, with ANP. In kind it is cell-based. Conditions: for EC50 / Max efficacy: HEK293 cells overexpressing pGC-A; for EC50: test compound plus EC20 concentration of ANP, cGMP by HTRF; for Emax: HEK293, HEK293 cells overexpressing pGC-A, read-out: Max efficacy; for Emax / Max efficacy: cGMP normalized to maximal amount produced by an EC80 concentration of ANP. The method, boiled down: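 Suspension cells stimulated 30 min at room temperature with test compound (10 μM stock in DMSO) plus ANP near EC20 in HBSS/5 mM HEPES/0.05% BSA. cGMP quantified by competitive HTRF immunoassay (Eu3+ cryptate anti-cGMP, d2-cGMP), normalized to cGMP from EC80 ANP; EC50 derived with or without ANP.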
(Time-resolved FRET reads energy transfer from a long-lived donor to a nearby acceptor.)

Broadly, the EC50 is the concentration giving half of the maximal effect. Turning to `CN(C)CCN[C@H]1CCC[C@H](C(=O)Nc2nc3c(F)cc(F)cc3s2)C1` [compound 209], the EC50 is greater than 5 µM.
In the case of `CN(C)CCN[C@@H]1CCCCC1C(=O)Nc1nc2c(F)cc(F)cc2s1` (stereo partly shown) [compound 211], the Emax was found to be 101%.
For `CN(C)CCN[C@@H]1CCCC[C@@H]1C(=O)Nc1nc2c(F)cc(F)cc2s1` [compound 211], the EC50 was found to be 1.53 µM.
As for `CN(C)CCC1CCCC(C(=O)Nc2nc3c(Cl)cc(F)cc3s2)C1` (stereo not shown) [compound 215], the Emax was 78% and the EC50 came to 0.9 µM.
As to `CN(C)CCN1CCCC(C(=O)Nc2nc3ccccc3s2)C1` (stereo not shown) [compound 216], the EC50 was greater than 10 µM.
For `CN(C)CCN1CCCC(NC(=O)c2nc3c(F)cc(F)cc3s2)C1` (stereo not shown) [compound 217], the concentration for a half-maximal effect (EC50) was greater than 10 µM.
On to `CN(C)C1CCN(CC(=O)Nc2nc3c(F)cc(F)cc3s2)CC1` [compound 219], for which the Emax was determined as 91% and the concentration giving a half-maximal response (EC50) turned out to be 1.5 µM.
With `CN(C)CCC1CCN(c2nc3c(F)cc(F)cc3s2)C(=O)C1` (stereo not shown) [compound 220], the EC50 is greater than 5 µM.
With `O=C1CCC(C(=O)Nc2nc3c(F)cc(F)cc3s2)CN1` (stereo not shown) [compound 222], the Emax is 58% and the EC50 stood at 1.01 µM.
As to `CN(C)CCN1CCCC(C(=O)Nc2nc3c(F)cccc3s2)C1` (stereo not shown) [compound 224], the Emax is 105% and the EC50 was determined as 5.8 µM.
For `CN(C)CCN1CCCC(C(=O)Nc2nc3c(Cl)cccc3s2)C1` (stereo not shown) [compound 225], the Emax was 97% and the EC50 worked out at 0.36 µM.
Take `CN(C)CCN1CCCC(C(=O)Nc2nc3c(Br)cccc3s2)C1` (stereo not shown) [compound 226]: the Max efficacy was 62% and 87%; the concentration for a half-maximal effect (EC50) is 0.16 µM and 0.9 µM.
For the compound `CN(C)CCN1CCC(C(=O)Nc2nc3c(F)cc(F)cc3s2)CC1` [compound 227], the Emax was determined as 93% and the EC50 came to 1.5 µM.
Regarding `CN(C)CCN1CCCC(C)(C(=O)Nc2nc3c(F)cc(F)cc3s2)C1` (stereo not shown) [compound 228], the half-maximal effective concentration (EC50) is greater than 5 µM.
`CN(C)C(=O)CN1CCCC(C(=O)Nc2nc3c(F)cc(F)cc3s2)C1` (stereo not shown) [compound 229]: the Emax is 91% and the half-maximal effective concentration (EC50) was 1.9 µM.
The corresponding values for `CN(C)CC(=O)N1CCCC(C(=O)Nc2nc3c(F)cc(F)cc3s2)C1` (stereo not shown) [compound 230] are 105% and 0.7 µM.
With `CN(C)CCCN1CCCC(C(=O)Nc2nc3c(F)cc(F)cc3s2)C1` (stereo not shown) [compound 231], the Emax came to 98% and the EC50 came out at 0.9 µM.
On to `CN(C)CCN1CCCC(C(=O)N(C)c2nc3c(F)cc(F)cc3s2)C1` (stereo not shown) [compound 232], for which the Emax came out at 82% and the concentration giving a half-maximal response (EC50) was 2.1 µM.
For the compound `CN(C)CCN1CCCC(C(=O)Nc2nc3c(F)ccc(F)c3s2)C1` (stereo not shown) [compound 234], the concentration for a half-maximal effect (EC50) was greater than 5 µM.
In the case of `CN(C)CCN1CCCC(C(=O)Nc2nc3c(F)cc(Cl)cc3s2)C1` (stereo not shown) [compound 235], the Emax is 113%; the Max efficacy was 113, 113%; the EC50 is 1.4 µM and 2.6 µM.
For the compound `NCCN1CCCC(C(=O)Nc2nc3c(F)cc(F)cc3s2)C1` (stereo not shown) [compound 236], the Emax was found to be 85% and the concentration giving a half-maximal response (EC50) came to 0.7 µM.
Regarding `CNCCN1CCCC(C(=O)Nc2nc3c(F)cc(F)cc3s2)C1` (stereo not shown) [compound 237], the Max efficacy is 74% and 51%.
As for `CCN(CC)CCN1CCCC(C(=O)Nc2nc3c(F)cc(F)cc3s2)C1` (stereo not shown) [compound 238], the Emax worked out at 86%; the Max efficacy amounted to 92%; the EC50 was 0.21 µM and 0.32 µM.
Consider `O=C(Nc1nc2c(F)cc(F)cc2s1)C1CCCN(CCN2CCCC2)C1` (stereo not shown) [compound 239], for which the Emax was determined as 87%; the Max efficacy is 94% and 77%; the EC50 was 0.22 µM and 0.3 µM.
As for `O=C(Nc1nc2c(F)cc(F)cc2s1)C1CCCN(CCNCCO)C1` (stereo not shown) [compound 240], the Emax was 105% and the concentration for a half-maximal effect (EC50) came out at 0.7 µM.
The corresponding values for `O=C(Nc1nc2c(F)cc(F)cc2s1)C1CCCN(CCN2CCOC2=O)C1` (stereo not shown) [compound 241] are 93% and 1.6 µM.
